Measurements as given in ChEMBL document CHEMBL3882725, “Indazole derivatives as JNK inhibitors and compositions and methods related thereto” (2002).

Biological target: Mitogen-activated protein kinase 9 (Homo sapiens, UniProt P45984)
Test: Inhibition of His6-tagged JNK2 (unknown origin) assessed as reduction in c-Jun phosphorylation using GST-c-Jun (1 to 79 residues) and [gamma32P]ATP incubated for 1 hr by scintillation counting assay

Chain of Mitogen-activated protein kinase 9 (P45984 whole entry, the tested form may be a part): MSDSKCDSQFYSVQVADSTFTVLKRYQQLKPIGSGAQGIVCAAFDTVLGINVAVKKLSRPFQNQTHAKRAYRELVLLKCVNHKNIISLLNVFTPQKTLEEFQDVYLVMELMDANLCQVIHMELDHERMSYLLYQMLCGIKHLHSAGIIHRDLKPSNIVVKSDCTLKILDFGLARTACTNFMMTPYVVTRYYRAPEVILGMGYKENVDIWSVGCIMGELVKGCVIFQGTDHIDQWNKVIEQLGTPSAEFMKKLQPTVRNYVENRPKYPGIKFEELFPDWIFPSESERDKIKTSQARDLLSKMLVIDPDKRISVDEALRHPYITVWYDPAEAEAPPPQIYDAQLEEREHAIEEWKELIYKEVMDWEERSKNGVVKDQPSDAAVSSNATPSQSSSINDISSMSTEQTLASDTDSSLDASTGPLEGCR

SMILES | IC50
O=C(CC1CCCCC1)Nc1cccc(-c2n[nH]c3ccc(-c4nc[nH]n4)cc23)c1 | 0.5 to 10 µM
O=C(Nc1ccncc1)c1cccc(-c2n[nH]c3ccc(-c4nc[nH]n4)cc23)c1 | 0.5 to 10 µM
CN(C)Cc1nc(-c2ccc3[nH]nc(-c4cccc(C(=O)NC(C)(C)C)c4)c3c2)n[nH]1 | 0.5 to 10 µM
O=C(NCCc1ccccc1)c1cccc(-c2n[nH]c3ccc(-c4nc[nH]n4)cc23)c1 | 0.5 to 10 µM
c1cncc(COc2cccc(-c3n[nH]c4ccc(-c5nc[nH]n5)cc34)c2)c1 | 1 to 10 µM
CN(C)Cc1nc(-c2ccc3[nH]nc(-c4cccc(NC(=O)[C@H](O)c5ccccc5)c4)c3c2)n[nH]1 | 0.5 to 10 µM
O=C(NC1CCN(Cc2ccccc2)CC1)c1cccc(-c2n[nH]c3ccc(-c4nc[nH]n4)cc23)c1 | 0.5 to 10 µM
CN(C)Cc1nc(-c2ccc3[nH]nc(-c4cccc(C(=O)N[C@@H]5CCc6ccccc65)c4)c3c2)n[nH]1 | 0.5 to 10 µM
O=C(NCCN1CCOCC1)c1cccc(-c2n[nH]c3ccc(-c4nc[nH]n4)cc23)c1 | 0.5 to 10 µM
NC(=O)c1ccc2[nH]nc(-c3cccc(NC(=O)c4cccc(O)c4)c3)c2c1 | 1 to 10 µM
NC(=O)c1ccc2[nH]nc(-c3ccc4c(c3)OCCO4)c2c1 | 1 to 10 µM
NC(=O)c1ccc2[nH]nc(-c3cccc(OCCN4CCCCC4)c3)c2c1 | 1 to 10 µM
O=C(Nc1cccc2c1CCCC2)c1cccc(-c2n[nH]c3ccc(-c4nc[nH]n4)cc23)c1 | 0.5 to 10 µM
O=C(O)c1cccc(-c2n[nH]c3ccc(-c4nc[nH]n4)cc23)c1 | 1 to 10 µM
c1nc(-c2ccc3[nH]nc(-c4ccc5c(c4)OCCO5)c3c2)n[nH]1 | 1 to 10 µM
O=C(Nc1cccc(-c2n[nH]c3ccc(-c4nc[nH]n4)cc23)c1)c1ccc(Cl)nc1 | 1 to 10 µM
O=C(NCCC1CCN(Cc2ccccc2)CC1)c1cccc(-c2n[nH]c3ccc(-c4nc[nH]n4)cc23)c1 | 0.5 to 10 µM
CC(C(=O)Nc1cccc(-c2n[nH]c3ccc(C(N)=O)cc23)c1)c1ccccc1 (stereo not given) | 1 to 10 µM
O=C(Nc1cccc(-c2n[nH]c3ccc(-c4nc[nH]n4)cc23)c1)[C@@H](O)c1ccccc1 | 0.5 to 10 µM
O=C(Nc1cccc(-c2n[nH]c3ccc(-c4nc[nH]n4)cc23)c1)C1CCCC1 | 1 to 10 µM
NC(=O)c1ccc2[nH]nc(-c3cccc(NC(=O)Cc4ccc(C(F)(F)F)cc4)c3)c2c1 | 1 to 10 µM
NC(=O)c1ccc2[nH]nc(-c3cccc(NC(=O)Cc4ccccc4)c3)c2c1 | 0.5 to 10 µM
CN(C)Cc1n[nH]c(-c2ccc3[nH]nc(-c4cccc(C(=O)NC5CC5)c4)c3c2)n1 | 0.5 to 10 µM
CN(C)CCc1nc(-c2ccc3[nH]nc(-c4ccc(F)cc4)c3c2)n[nH]1 | 1 to 10 µM

SMILES | IC50
O=C(NC1CCC1)c1cccc(-c2n[nH]c3ccc(-c4nc[nH]n4)cc23)c1 | 0.5 to 10 µM
CN(C)c1ccc(CC(=O)Nc2cccc(-c3n[nH]c4ccc(C(N)=O)cc34)c2)cc1 | 1 to 10 µM
Fc1ccc(-c2n[nH]c3ccc(-c4n[nH]c(CN5CCCCC5)n4)cc23)cc1 | 1 to 10 µM
CN(C)Cc1n[nH]c(-c2ccc3[nH]nc(-c4cccc(C(=O)NC5CCC5)c4)c3c2)n1 | 0.5 to 10 µM
CN(C)Cc1n[nH]c(-c2ccc3[nH]nc(-c4cccc(C(=O)NCCN5CCCCC5)c4)c3c2)n1 | 0.5 to 10 µM
O=C(Nc1ccc(-c2n[nH]c3ccc(-c4nc[nH]n4)cc23)cc1)c1cccnc1 | 1 to 10 µM
CCN(CC)Cc1nc(-c2ccc3[nH]nc(-c4ccc(F)cc4)c3c2)n[nH]1 | 1 to 10 µM
CN(C)CC(=O)Nc1ccc(-c2n[nH]c3ccc(-c4nc[nH]n4)cc23)cc1 | 1 to 10 µM
O=C(Nc1cccc(-c2n[nH]c3ccc(-c4nc[nH]n4)cc23)c1)c1ccccn1 | 0.5 to 10 µM
NC(=O)c1ccc2[nH]nc(-c3cccc(NC(=O)CCc4ccc(F)cc4)c3)c2c1 | 1 to 10 µM
CCCCC(=O)Nc1cccc(-c2n[nH]c3ccc(-c4nc[nH]n4)cc23)c1 | 0.5 to 10 µM
NC(=O)c1ccc2[nH]nc(-c3cccc(NC(=O)Cc4ccc(Cl)cc4Cl)c3)c2c1 | 1 to 10 µM
CN(C)Cc1nc(-c2ccc3[nH]nc(-c4cccc(C(=O)NCc5ccc(F)cc5)c4)c3c2)n[nH]1 | 0.5 to 10 µM
O=c1[nH]c(-c2ccc3[nH]nc(-c4ccc(F)cc4)c3c2)no1 | 0.5 to 10 µM
COCC(=O)Nc1ccc(-c2n[nH]c3ccc(-c4nc[nH]n4)cc23)cc1 | 1 to 10 µM
COc1ccc(CC(=O)Nc2cccc(-c3n[nH]c4ccc(C(N)=O)cc34)c2)cc1 | 0.5 to 10 µM
O=C(N[C@H]1C[C@@H]1c1ccccc1)c1cccc(-c2n[nH]c3ccc(-c4nc[nH]n4)cc23)c1 | 0.5 to 10 µM
CN(C)Cc1nc(-c2ccc3[nH]nc(-c4ccc5c(c4)OCO5)c3c2)n[nH]1 | 0.5 to 10 µM
NC(=O)c1ccc2[nH]nc(-c3cccc(NC(=O)Cc4ccc(F)cc4)c3)c2c1 | 0.5 to 10 µM
O=C(Nc1cccc(-c2n[nH]c3ccc(-c4nc[nH]n4)cc23)c1)C(=O)c1ccco1 | 1 to 10 µM
O=C(NC1CCCC1)c1cccc(-c2n[nH]c3ccc(-c4nc[nH]n4)cc23)c1 | 0.5 to 10 µM
NC(=O)c1ccc2[nH]nc(-c3cccc(NC(=O)C4CC4)c3)c2c1 | 1 to 10 µM
O=C(Nc1ccc(-c2n[nH]c3ccc(-c4nn[nH]n4)cc23)cc1)c1cccnc1 | 0.5 to 10 µM
NC(=O)c1ccc2[nH]nc(-c3cccc(NC(=O)Cc4ccncc4)c3)c2c1 | 0.5 to 10 µM

SMILES | IC50
COCCOc1cccc(-c2n[nH]c3ccc(-c4nc[nH]n4)cc23)c1 | 1 to 10 µM
NC(=O)c1ccc2[nH]nc(-c3cccc(NC(=O)Cc4ccc(F)c(F)c4)c3)c2c1 | 1 to 10 µM
CNCc1nc(-c2ccc3[nH]nc(-c4ccc(F)cc4)c3c2)n[nH]1 | 0.5 to 10 µM
NC(=O)c1ccc2[nH]nc(-c3cccc(NC(=O)Cc4ccccn4)c3)c2c1 | 1 to 10 µM
Fc1ccc(-c2n[nH]c3ccc(-c4nnc(CN5CCOCC5)o4)cc23)cc1 | 1 to 10 µM
O=C(Nc1ccccc1)c1cccc(-c2n[nH]c3ccc(-c4nc[nH]n4)cc23)c1 | 0.5 to 10 µM
COc1ccc(-c2n[nH]c3ccc(-c4n[nH]c(CN(C)C)n4)cc23)cc1 | 0.5 to 10 µM
NC(=O)c1ccc2[nH]nc(-c3cccc(NC(=O)Cc4ccccc4F)c3)c2c1 | 0.5 to 10 µM
O=C(Nc1cccc(-c2n[nH]c3ccc(-c4nc[nH]n4)cc23)c1)C1CC1 | 1 to 10 µM
O=C(Nc1cccc(-c2n[nH]c3ccc(-c4nc[nH]n4)cc23)c1)c1ccoc1 | 0.5 to 10 µM
O=C(Nc1ccc(F)cc1)c1cccc(-c2n[nH]c3ccc(-c4nc[nH]n4)cc23)c1 | 0.5 to 10 µM
O=C(Nc1cccc(-c2n[nH]c3ccc(-c4nc[nH]n4)cc23)c1)C(=O)c1c[nH]c2ccccc12 | 1 to 10 µM
COc1ccc2cc(-c3n[nH]c4ccc(C(N)=O)cc34)ccc2c1 | 1 to 10 µM
CN(C)Cc1n[nH]c(-c2ccc3[nH]nc(-c4cccc(C(=O)NC5Cc6ccccc6C5)c4)c3c2)n1 | 0.5 to 10 µM
CN(C)Cc1n[nH]c(-c2ccc3[nH]nc(-c4cc5ccccc5o4)c3c2)n1 | 1 to 10 µM
O=C(NC1CCCCC1)c1cccc(-c2n[nH]c3ccc(-c4nc[nH]n4)cc23)c1 | 0.5 to 10 µM
NC(=O)c1ccc2[nH]nc(-c3cccc(NC(=O)Cc4ccc(F)cc4Cl)c3)c2c1 | 1 to 10 µM
O=C(Nc1cccc(-c2n[nH]c3ccc(-c4nc[nH]n4)cc23)c1)C(=O)c1ccccc1 | 1 to 10 µM
O=C(Nc1cccnc1)c1cccc(-c2n[nH]c3ccc(-c4nc[nH]n4)cc23)c1 | 0.5 to 10 µM
CN(C)Cc1n[nH]c(-c2ccc3[nH]nc(-c4cccc(C(=O)Nc5ccccc5)c4)c3c2)n1 | 0.5 to 10 µM
CC(c1nc(-c2ccc3[nH]nc(-c4ccc(F)cc4)c3c2)n[nH]1)N(C)C (stereo not given) | 0.5 to 10 µM
Fc1ccc(-c2n[nH]c3ccc(-c4n[nH]c(CN5CCOCC5)n4)cc23)cc1 | 1 to 10 µM
NC(=O)c1ccc2[nH]nc(-c3cccc(NC(=O)Cc4ccc(Cl)cc4)c3)c2c1 | 1 to 10 µM
O=C(NC1CC1)c1cccc(-c2n[nH]c3ccc(-c4nc[nH]n4)cc23)c1 | 0.5 to 10 µM

SMILES | IC50
Cc1ncc(CC(=O)Nc2cccc(-c3n[nH]c4ccc(C(N)=O)cc34)c2)s1 | 1 to 10 µM
CN(C)Cc1n[nH]c(-c2ccc3[nH]nc(-c4cccc(C(=O)Nc5ccc(F)cc5)c4)c3c2)n1 | 0.5 to 10 µM
O=C(Cc1ccc(F)cc1)Nc1cccc(-c2n[nH]c3ccc(-c4nc[nH]n4)cc23)c1 | 0.5 to 10 µM
COCCNC(=O)c1cccc(-c2n[nH]c3ccc(-c4nc[nH]n4)cc23)c1 | 0.5 to 10 µM
Fc1ccc(-c2n[nH]c3ccc(-c4n[nH]c(C5CCCN5)n4)cc23)cc1 (stereo not given) | 0.5 to 10 µM
O=C(O)C(=O)Nc1cccc(-c2n[nH]c3ccc(-c4nc[nH]n4)cc23)c1 | 0.5 to 10 µM
CS(=O)(=O)Nc1ccc(-c2n[nH]c3ccc(-c4nc[nH]n4)cc23)cc1 | 1 to 10 µM
CN(C)Cc1nc(-c2ccc3[nH]nc(-c4cccc(NC(=O)CC(C)(C)C)c4)c3c2)n[nH]1 | 0.5 to 10 µM
O=C(Nc1cccc(-c2n[nH]c3ccc(-c4nc[nH]n4)cc23)c1)c1cc2ccccc2s1 | 1 to 10 µM
CN(C)Cc1nc(-c2ccc3[nH]nc(-c4cccc(NC(=O)c5cccnc5)c4)c3c2)n[nH]1 | 0.5 to 10 µM
O=C(Nc1cccc(-c2n[nH]c3ccc(-c4nc[nH]n4)cc23)c1)c1ccno1 | 0.5 to 10 µM
CC(C)CC(=O)Nc1cccc(-c2n[nH]c3ccc(-c4n[nH]c(CN(C)C)n4)cc23)c1 | 0.5 to 10 µM
O=C(NC1CCN(Cc2ccccc2)C1)c1cccc(-c2n[nH]c3ccc(-c4nc[nH]n4)cc23)c1 (stereo not given) | 0.5 to 10 µM
O=C(Nc1cccc(-c2n[nH]c3ccc(-c4nc[nH]n4)cc23)c1)[C@H](O)c1ccccc1 | 0.5 to 10 µM
NC(=O)c1ccc2[nH]nc(-c3cccc(NC(=O)CCc4ccccc4)c3)c2c1 | 1 to 10 µM
NC(=O)c1ccc2[nH]nc(-c3cccc(NC(=O)Cc4ccsc4)c3)c2c1 | 1 to 10 µM
NC(=O)c1ccc2[nH]nc(-c3cccc(C(=O)NCCN4CCCCC4)c3)c2c1 | 1 to 10 µM
NC(=O)c1ccc2[nH]nc(-c3cccc(NC(=O)c4cccs4)c3)c2c1 | 1 to 10 µM
O=C(Nc1cccc(-c2n[nH]c3ccc(-c4nc[nH]n4)cc23)c1)C(O)c1ccccc1 (stereo not given) | 0.5 to 10 µM
O=C(NCCN1CCCCC1)c1cccc(-c2n[nH]c3ccc(-c4nc[nH]n4)cc23)c1 | 0.5 to 10 µM
NC(=O)c1ccc2[nH]nc(-c3cccc(NC(=O)C4CCOC4)c3)c2c1 (stereo not given) | 0.5 to 10 µM
O=C(CCc1ccccc1)Nc1cccc(-c2n[nH]c3ccc(-c4nc[nH]n4)cc23)c1 | 0.5 to 10 µM
CC(C)NC(=O)c1cccc(-c2n[nH]c3ccc(-c4nc[nH]n4)cc23)c1 | 0.5 to 10 µM
